# Results as given in patent publication US20260308158A1, “TARGETING RNAS ASSOCIATED WITH TAUOPATHIES WITH SMALL MOLECULES” (University of Florida Research Foundation, Incorporated, priority 2023, published 2026).
# How the values were obtained:
# DDPAC I17T model RNA = experiment: Optical melting, DDPAC I17T RNA; assay type: binding; conditions: 2 at 1.5 μM
# Description: Optical Melting Experiments. The thermal stabilities of WT, DDPAC, and DDPAC+I17T model RNAs were analyzed by optical melting in the presence or absence of compound 1 or 2 as previously described.^18 The RNAs (2 μM) were heated to 95° C. in 1×PBS buffer and slowly cooled to room temperature. The samples were then cooled to 15° C. in the presence of compound 1 (10 μM; 0.1% (v/v) DMSO), 2 (1.5 μM; 0.1% (v/v) DMSO) or vehicle (0.1% (v/v) DMSO) and then heated to 85° C. at a rate of 1° C. per min. Absorbance as a function of temperature was measured at 260 nm using a Beckman Coulter DU800 UV/vis spectrophotometer. Melting curves were fitted with MeltWin 3.5.^31
# WT tau RNA duplex = experiment: NMR spectral analysis (WaterLOGSY, 1D, 2D NOESY) with WT tau duplex; assay type: binding
# Description: Preparation of NMR Samples. Two duplex-forming oligoribonucleotides r (5′-[…]-3′ (SEQ ID NO: 3))+r(5′[…]-3′ (SEQ ID NO: 4)) were designed to mimic the stem of the tau wild type (WT) hairpin. Individual RNA oligonucleotides were combined in 400 μL of NMR Buffer [10 mM KH2PO4/K2HPO4, pH 6.0 and 0.5 mM EDTA] in H2O or 100% D2O with a final RNA duplex concentration of 15 μM for WaterLOGSY experiments, […] was added to 5% (v/v) to provide a lock signal. RNA samples were annealed by heating to 95° C. for 3 min, followed by slow cooling to room temperature before being added to Shigemi NMR tubes (Shigemi, Inc.). Compound of interest was added to a final compound: RNA molar ratio of 20.0 for WaterLOGSY experiments, 2.0 for 1D ^1H H2O experiments, and 1.5 for 2D ^1NOESY experiments.
# NMR Spectroscopy. NMR spectra were acquired on Bruker Avance III 600 and 700 MHz spectrometers equipped with cryoprobes. WaterLOGSY spectra were acquired at 298 K, 1D NMR spectra of samples in 95% H2O/5% D2O were acquired at 283 K, and 2D NOESY spectra in 100% D2O were acquired at 308 K. For 1D spectra of samples in 95% H2O/5% D2O, an excitation sculpting sequence during acquisition suppressed the water signal. Proton chemical shifts were referenced internally to the frequency of water. WaterLOGSY and 1D ^1H spectra were processed using Bruker TopSpin and 2D NMR spectra were processed with NMRPipe^1 and assigned with SPARKY^2.
# WT mice = experiment: Nesting activity, WT mice; assay type: in vivo, mouse
# Description: Nesting Activity. From Day 1 to Day 20, mice were individually housed and nesting material from the previous day was removed. An intact 3.0 g nestlet was placed within each cage. Around 15 h later, the resulting nest was photographed for qualitative scoring, and the untorn nestlet was weighed if present. All nest images and weights were analyzed by a blinded individual and based on published criteria.^43 In brief, nesting is scored on a rating scale of 1-5 where if the nestlet is over 90% intact, it is given a nestlet score is 1 (Poor; FIG. 4C). When the nestlet is partially torn but >50% remains, the nestlet score is 2; a score of 3 is assigned when 50-90% of the nestlet is torn but spread around the cage and no identifiable nest site is found (Medium; FIG. 4C). When more than 90% of the nestlet is torn and the nest is identifiable but flat, the nestlet score is 4. When a near perfect nest is built and the wall is higher than the mouse's body, it is assigned a nestlet score of 5 (Good; FIG. 4C).
smiles,measurement,setting,value
"COc1cc(N)ncc1CCCN(C)CCCn1cnc2c3ccccc3n(C)c2c1=O [Compound 2, 3-(3-((3-(6-amino-4-methoxypyridin-3-yl)propyl)(methyl)amino)propyl)-5-methyl-3,5-dihydro-4H-pyrimido[5,4-b]indol-4-one]",effect on Tm,DDPAC I17T model RNA,no effect on the Tm
same,WaterLOGSY on addition of RNA,"WT tau RNA duplex; 300 μM of 2, WT tau duplex, 298 K","changed the sign of the NOE, resulting in the appearance of negative peaks"
same,RNA 1D 1H (imino proton) spectrum on addition of compound,WT tau RNA duplex; 0.5-2.0 equivalents of 2,dose dependent changes in the RNA's 1D ^1H spectrum
same,NOE between compound and RNA,"WT tau RNA duplex; 2D NOESY, 400 ms mixing time, 35° C.",A single NOE was observed from H5/H6 of the compound to G17H1′
same,nesting behavior vs no treatment,"WT mice; 20 days, 100 mg/kg p.o. q.o.d.",no significant difference in nesting behavior
same,nest score at Day 20,"WT mice; scale 1-5, 100 mg/kg p.o. q.o.d.",4.1±0.2
same,average nest score over time,"WT mice; scale 1-5, over 20 days, 100 mg/kg p.o. q.o.d.",3.7-4.3
